Measurements from patent US7964732B2, “Substituted bicyclocarboxyamide compounds” (Pfizer Inc., priority 2006, dated 2011).

Biological target: T1, human VR1 (Homo sapiens, UniProt Q8NER1)
T1 construct: host or cells: cells that express human VR1 receptors (cell type not specified)
Assay: Human VR1 antagonist assay (Ca2+ imaging assay using human VR1 highly expressing cells)
Assay type: cell-based
Details: intracellular Ca2+ imaging (fura-2)
Text: VR1 antagonistic activity can be determined by the Ca^2+ imaging assay using human VR1 highly expressing cells. The cells that highly express human VR1 receptors are obtainable from several different conventional methods. The one standard method is cloning from human Dorsal Root Ganglion (DRG) or kidney according to the methods such as described in the journal article; Nature, 389, pp 816-824, 1997. Alternatively VR1 receptors highly expressing human keratinocytes are also known and published in the journal article (Biochemical and Biophysical Research Communications, 291, pp 124-129, 2002). […] Furthermore, the method to up regulate human VR1 gene, which is usually a silent gene or don't produce detectable level of VR1 receptors, is also available to obtain propriety cells. Such genetic modification method was described in detail; Nat. Biotechnol., 19, pp 440-445, 2001.
The cells that express human VR1 receptors were maintained in culture flask at 37° C. in an environment containing 5% CO2 until use in the assay. The intracellular Ca^2+ imaging assay to determine VR1 antagonistic activities were done by following procedures.
The culture medium was removed from the flask and fura-2/AM fluorescent calcium indicator was added to the flask at a concentration of 5 μM in the medium. The flask was placed in CO2 incubator and incubated for 1 hour. Then the cells expressing the human VR1 receptors were detached from the flask follow by washing with phosphate buffer saline, PBS(−) and re-suspended in assay buffer. The 80 μl of aliquot of cell suspension (3.75×10^5 cells/ml) was added to the assay plate and the cells were spun down by centrifuge (950 rpm, 20° C., 3 minutes).
Compounds of the examples were tested in the Human VR1 antagonist assay described above.
The capsaicin-induced changes in the intracellular calcium concentration were monitored using FDSS 6000 (Hamamatsu Photonics, Japan), a fluorometric imaging system. The cell suspension in Krebs-Ringer HEPES (KRH) buffer (115 mM NaCl, 5.4 mM KCl, 1 mM MgSO4, 1.8 mM CaCl2, 11 mM D-Glucose, 25 mM HEPES, 0.96 mM Na2HPO4, pH 7.3) were pre-incubated with varying concentrations of the test compounds or KRH buffer (buffer control) for 15 minutes at room temperature under the dark condition. Then capsaicin solution, which gives 300 nM in assay mixture, was automatically added to the assay plate by the FDSS 6000.
The Acid-induced changes in the intracellular calcium concentration were monitored using FDSS 6000 (Hamamatsu Photonics, Japan), a fluorometric imaging system. The cell suspension in resting buffer (HBSS supplemented with 10 mM HEPES, pH 7.4) were pre-incubated with varying concentrations of the test compounds or resting buffer (buffer control) for 15 minutes at room temperature under the dark condition. The cells were automatically added the stimulating solution (HBSS supplemented with MES, final assay buffer pH5.8) by the FDSS 6000.
The monitoring of the changes in the fluorescence signals (λex=340 nm/380 nm, λem=510-520 nm) was initiated at 1 minute prior to the addition of capsaicin solution or acidic buffer and continued for 5 minute.

T1 sequence (Q8NER1 whole entry): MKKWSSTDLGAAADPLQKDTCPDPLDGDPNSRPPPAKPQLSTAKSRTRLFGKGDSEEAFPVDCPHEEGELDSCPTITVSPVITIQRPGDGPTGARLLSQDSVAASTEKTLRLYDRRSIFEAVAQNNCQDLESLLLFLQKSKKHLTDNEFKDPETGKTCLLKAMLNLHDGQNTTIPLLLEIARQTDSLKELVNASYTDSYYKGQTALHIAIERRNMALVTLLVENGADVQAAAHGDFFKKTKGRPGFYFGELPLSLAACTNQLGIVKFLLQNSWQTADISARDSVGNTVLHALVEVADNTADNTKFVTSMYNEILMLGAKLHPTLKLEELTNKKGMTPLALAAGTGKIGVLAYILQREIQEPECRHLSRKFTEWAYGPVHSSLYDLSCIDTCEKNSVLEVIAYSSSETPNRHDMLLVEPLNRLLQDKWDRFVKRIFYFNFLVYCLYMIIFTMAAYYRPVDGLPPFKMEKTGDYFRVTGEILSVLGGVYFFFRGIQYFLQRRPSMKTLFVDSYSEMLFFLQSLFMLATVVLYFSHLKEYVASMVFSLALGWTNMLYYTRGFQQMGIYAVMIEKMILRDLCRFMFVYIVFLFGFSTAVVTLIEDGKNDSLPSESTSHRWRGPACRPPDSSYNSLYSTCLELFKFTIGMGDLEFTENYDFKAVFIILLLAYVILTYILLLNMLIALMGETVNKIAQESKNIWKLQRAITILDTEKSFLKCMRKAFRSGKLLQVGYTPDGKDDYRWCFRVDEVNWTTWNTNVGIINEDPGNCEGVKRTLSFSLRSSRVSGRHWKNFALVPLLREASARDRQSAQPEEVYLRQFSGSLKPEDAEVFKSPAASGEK

IC50 [nM]	SMILES
177	Cc1c([C@@H](C)NC(=O)c2ccc3cc(C(C)(O)C(F)(F)F)ccc3c2)cnn1C (mixture of isomers) [Example 31, N-[(1R)-1-(1,5-dimethyl-1H-pyrazol-4-yl)ethyl]-6-(2,2,2-trifluoro-1-hydroxy-1-methylethyl)-2-naphthamide]
145	CCC(NC(=O)c1ccc2nc(C(C)(C)C(F)(F)F)ccc2c1)c1cnn(C)c1C (racemic) [Example 7, N-[1-(1,5-dimethyl-1H-pyrazol-4-yl)propyl]-2-(2,2,2-trifluoro-1,1-dimethylethyl)quinoline-6-carboxamide]
66	CC[C@@H](NC(=O)c1ccc2nc(C(C)(C)C(F)(F)F)ccc2c1)c1cnn(C)c1C (single isomer, unassigned) [Example 8]
52.7	Cc1c([C@@H](C)NC(=O)c2ccc3cc([C@@](C)(O)C(F)(F)F)ccc3c2)cnn1C (single isomer, unassigned) [Example 32]
261	Cc1c(CNC(=O)c2ccc3nc(C(C)(C)C(F)(F)F)ccc3c2)cnn1C [Example 2, N-[(1,5-dimethyl-1H-pyrazol-4-yl)methyl]-2-(2,2,2-trifluoro-1,1-dimethylethyl)quinoline-6-carboxamide]
322	C[C@@H](NC(=O)c1ccc2nc(C(C)(C)C(F)(F)F)ccc2c1)c1cnn(C)c1C#N [Example 3, (R)-N-(1-(5-cyano-1-methyl-1H-pyrazol-4-yl)ethyl)-2-(2,2,2-trifluoro-1,1-dimethylethyl)quinoline-6-carboxamide]
607	C[C@@H](NC(=O)c1ccc2nc(C(C)(C)C(F)(F)F)ccc2c1)c1cnn(C)c1CO [Example 4, (R)-N-(1-(5-(hydroxymethyl)-1-methyl-1H-pyrazol-4-yl)ethyl)-2-(2,2,2-trifluoro-1,1-dimethylethyl)quinoline-6-carboxamide]
44.1	Cc1c(C(C)NC(=O)c2ccc3nc(C(C)(C)C(F)(F)F)ccc3c2)cnn1CC(F)(F)F (centres unmarked) [Example 5, N-(1-(5-methyl-1-(2,2,2-trifluoroethyl)-1H-pyrazol-4-yl)ethyl)-2-(2,2,2-trifluoro-1,1-dimethylethyl)quinoline-6-carboxamide]
323	Cc1[nH]ncc1C(C)NC(=O)c1ccc2nc(C(C)(C)C(F)(F)F)ccc2c1 (centres unmarked) [Example 9, N-[1-(5-methyl-1H-pyrazol-4-yl)ethyl]-2-(2,2,2-trifluoro-1,1-dimethylethyl)quinoline-6-carboxamide]
16.4	Cc1c(C(C)NC(=O)c2ccc3nc(C(C)(C)C(F)(F)F)ccc3c2)cnn1CCO (centres unmarked) [Example 11, N-(1-(1-(2-hydroxyethyl)-5-methyl-1H-pyrazol-4-yl)ethyl)-2-(2,2,2-trifluoro-1,1-dimethylethyl)quinoline-6-carboxamide]
79.9	Cc1c(C(C)NC(=O)c2ccc3nc(C(C)(C)C(F)(F)F)ccc3c2)cnn1CC(C)(C)O (centres unmarked) [Example 12, N-(1-(1-(2-hydroxy-2-methylpropyl)-5-methyl-1H-pyrazol-4-yl)ethyl)-2-(2,2,2-trifluoro-1,1-dimethylethyl)quinoline-6-carboxamide]
313	Cc1c([C@@H](C)NC(=O)c2ccc3nc(C4(C)CC4)ccc3c2)cnn1C [Example 13, N-[(1R)-1-(1,5-dimethyl-1H-pyrazol-4-yl)ethyl]-2-(1-methylcyclopropyl) quinoline-6-carboxamide]
63.7	Cc1c([C@@H](C)NC(=O)c2ccc3nc(C(C)(O)C(F)(F)F)ccc3c2)cnn1C (some centres unmarked) [Example 14]
71.7	CCn1ncc(CNC(=O)c2ccc3nc(C(C)(C)C(F)(F)F)ccc3c2)c1C [Example 15, N-[(1-ethyl-5-methyl-1H-pyrazol-4-yl)methyl]-2-(2,2,2-trifluoro-1,1-dimethylethyl)quinoline-6-carboxamide]
28.9	CCn1ncc(C(C)NC(=O)c2ccc3nc(C(C)(C)C(F)(F)F)ccc3c2)c1C (centres unmarked) [Example 16, N-[1-(1-ethyl-5-methyl-1H-pyrazol-4-yl)ethyl]-2-(2,2,2-trifluoro-1,1-dimethylethyl)quinoline-6-carboxamide]
124	Cc1c(C(C)NC(=O)c2ccc3nc(C(C)(C)C(F)(F)F)ccc3c2)cnn1C1CCC1 (centres unmarked) [Example 17]

IC50 [nM]	SMILES
3	C[C@@H](NC(=O)c1ccc2nc(C(C)(C)C(F)(F)F)ccc2c1)c1cnn(C)c1Cl [Example 18a, (R)-N-(1-(5-chloro-1-methyl-1H-pyrazol-4-yl)ethyl)-2-(2,2,2-trifluoro-1,1-dimethylethyl)quinoline-6-carboxamide]
121	Cc1c([C@@H](C)NC(=O)c2ccc3nc(C(F)(F)F)ccc3c2)cnn1C [Example 23, (R)-N-(1-(1,5-dimethyl-1H-pyrazol-4-yl)ethyl)-2-(trifluoromethyl) quinoline-6-carboxamide]
23	Cc1c(C(C)NC(=O)c2ccc3cc(C(C)(C)C)ccc3c2)cnn1C (centres unmarked) [Example 24, 6-tert-butyl-N-[1-(1,5-dimethyl-1H-pyrazol-4-yl)ethyl]-2-naphthamide]
118	Cc1n[nH]c(C)c1CNC(=O)c1ccc2cc(C(C)(C)C)ccc2c1 [Example 25, 6-tert-butyl-N-[(3,5-dimethyl-1H-pyrazol-4-yl)methyl]-2-naphthamide]
443	Cc1nn(C)cc1CNC(=O)c1ccc2cc(C(C)(C)C)ccc2c1 [Example 26, 6-tert-butyl-N-[(1,3-dimethyl-1H-pyrazol-4-yl)methyl]-2-naphthamide]
73	Cc1c(CNC(=O)c2ccc3cc(C(C)(C)C)ccc3c2)cnn1C [Example 27, 6-tert-butyl-N-[(1,5-dimethyl-1H-pyrazol-4-yl)methyl]-2-naphthamide]
57.4	CCC(NC(=O)c1ccc2cc(C(C)(C)C)ccc2c1)c1cnn(C)c1C (centres unmarked) [Example 28, 6-tert-butyl-N-(1-(1,5-dimethyl-1H-pyrazol-4-yl)propyl)-2-naphthamide]
189	Cc1c(C(C)NC(=O)c2ccc3cc(C(F)(F)F)ccc3c2)cnn1C (centres unmarked) [Example 29, N-(1-(1,5-dimethyl-1H-pyrazol-4-yl)ethyl)-6-(trifluoromethyl)-2-naphthamide]
20.1	Cc1c([C@@H](C)NC(=O)c2ccc3cc(C4(C)CC4)ccc3c2)cnn1C [Example 30, N-[(1R)-1-(1,5-dimethyl-1H-pyrazol-4-yl)ethyl]-6-(1-methylcyclopropyl)-2-naphthamide]
3190	Cc1c([C@@H](C)NC(=O)c2ccc3cc([C@](C)(O)C(F)(F)F)ccc3c2)cnn1C [Example 32a, N-[(1R)-1-(1,5-dimethyl-1H-pyrazol-4-yl)ethyl]-6-[(1S)-2,2,2-trifluoro-1-hydroxy-1-methylethyl]-2-naphthamide]
139	COC(C)(c1ccc2cc(C(=O)NC(C)c3cnn(C)c3C)ccc2c1)C(F)(F)F (centres unmarked) [Example 33, N-[1-(1,5-dimethyl-1H-pyrazol-4-yl)ethyl]-6-(2,2,2-trifluoro-1-methoxy-1-methylethyl)-2-naphthamide]
254	Cc1c(CNC(=O)c2ccc3cc(C(C)(C)C)ccc3n2)cnn1C [Example 34, 6-tert-butyl-N-[(1,5-dimethyl-1H-pyrazol-4-yl)methyl]quinoline-2-carboxamide]
1870	Cc1nn(C)c(C)c1CNC(=O)c1ccc2cc(C(C)(C)C)ccc2c1 [Example 35, 6-tert-butyl-N-((1,3,5-trimethyl-1H-pyrazol-4-yl)methyl)-2-naphthamide]
3480	Cn1cc(CNC(=O)c2ccc3cc(C(C)(C)C)ccc3c2)cn1 [Example 36]
1000	Cc1c(C(C)NC(=O)c2ccc3cc(C(C)(C)O)ccc3c2)cnn1C (centres unmarked) [Example 37, N-[1-(1,5-dimethyl-1H-pyrazol-4-yl)ethyl]-6-(1-hydroxy-1-methylethyl)-2-naphthamide]
237 to 455	Oc1cc2c(cc1O)CN(C(=S)NCCc1ccc(Cl)cc1)CCC2 [capsazepin, reference compound]
